Assay [1] has as its system PPO-deficient BT3 E. coli (ΔPPO) transformed with CyPPO19 variant R89A+F360I (Thermosynechococcus elongatus PKUAC-SCTE542, SEQ ID NO: 1). Nature of the assay: Herbicide tolerance test in E. coli, CyPPO19 R89A+F360I. It counts as cell-based. The conditions noted are these: LB agar, 0 to 2,000 μM herbicide, 37° C., 16-20 hours. An excerpt:
(§1) To enhance the PPO-inhibiting herbicide resistance of CyPPO19 and CyPPO18, PPO variant genes of the above example 2 were constructed. They were transformed to BT3 (ΔPPO) strain which is deficient of PPO activity and cultured in LB media with PPO-inhibiting herbicide, thereby examining whether growth of transformed BT3 was not inhibited.
(§2) BT3 competent cells were transformed with the pET303-CyPPO19 (wild type), pET303-CyPPO18 (wild type) plasmids, and those with a mutation(s) constructed (refer to example 2) via heat shock method, and were cultured in LB agar media containing ampicillin.
(§3) Single colony transformed with each CyPPO gene was cultured in 3 mL of LB broth (LPSS) containing ampicillin for more than 12 hours, and then was subcultured in LB broth until absorbance (OD600) reached 0.5 to 1. Then, it was diluted with LB broth to OD600=0.5. Again, the diluted solution was serially diluted 4 times by a factor of one tenth. […]
(§4) Then, 10 μL of each diluted solution of E. coli was dropped on the plate and cultured at 37° C. under dark for 16-20 hours. PPO-inhibiting herbicide resistance was evaluated with the extent of E. coli growth containing each gene was observed.
(§5) The extent of herbicide resistance was evaluated by the relative growth of variants to that of wild type, and listed in Tables 9 and 10 and FIGS. 3 to 32. […]

For assay [2], the system named is PPO-deficient BT3 E. coli (ΔPPO) transformed with CyPPO18 variant R89A+F360V (Thermosynechococcus vulcanus NIES-2134, SEQ ID NO: 3). It counts as cell-based. The conditions noted are these: LB agar, 0 to 2,000 μM herbicide, 37° C., 16-20 hours.
Description: as §1, §2, §3, §4, §5

Assay [3] relates to PPO-deficient BT3 E. coli (ΔPPO) transformed with CyPPO18 variant V165S+A167L+V305M+F360I (Thermosynechococcus vulcanus NIES-2134, SEQ ID NO: 3). Nature of the assay: Herbicide tolerance test in E. coli, CyPPO18 V165S+A167L+V305M+F360I. Type of assay: cell-based. On the set-up: key to the marks not given beside the values. The conditions noted are these: LB agar, 0 to 2,000 μM herbicide, 37° C., 16-20 hours.
Description: as §1, §2, §3, §4, §5

Assay [4] addresses Thermosynechococcus vulcanus NIES-2134 protoporphyrinogen IX oxidase CyPPO18 (SEQ ID NO: 3) variant A167L (MBP fusion) (Thermosynechococcus vestitus, UniProt Q8DLV2, A167L). Nature of the assay: PPO enzyme inhibition assay (IC50 for herbicides), CyPPO18 A167L fused to MBP. It counts as biochemical. The conditions noted are these: 50 μM protoporphyrinogen IX, pH 7.5, room temperature, 30 min.

In assay [5] the test system is PPO-deficient BT3 E. coli (ΔPPO) transformed with CyPPO18 variant A167L+V305M+F360M (Thermosynechococcus vulcanus NIES-2134, SEQ ID NO: 3). It counts as cell-based. On the set-up: key to the marks not given beside the values. Particulars: LB agar, 0 to 2,000 μM herbicide, 37° C., 16-20 hours.
Description: as §1, §2, §3, §4, §5

Assay [6] has as its target T1, Thermosynechococcus elongatus PKUAC-SCTE542 protoporphyrinogen IX oxidase CyPPO19, wild type, SEQ ID NO: 1 (MBP fusion) (Thermosynechococcus sichuanensis, UniProt A0A7D6JSC1).
T1 sequence (A0A7D6JSC1 1-467): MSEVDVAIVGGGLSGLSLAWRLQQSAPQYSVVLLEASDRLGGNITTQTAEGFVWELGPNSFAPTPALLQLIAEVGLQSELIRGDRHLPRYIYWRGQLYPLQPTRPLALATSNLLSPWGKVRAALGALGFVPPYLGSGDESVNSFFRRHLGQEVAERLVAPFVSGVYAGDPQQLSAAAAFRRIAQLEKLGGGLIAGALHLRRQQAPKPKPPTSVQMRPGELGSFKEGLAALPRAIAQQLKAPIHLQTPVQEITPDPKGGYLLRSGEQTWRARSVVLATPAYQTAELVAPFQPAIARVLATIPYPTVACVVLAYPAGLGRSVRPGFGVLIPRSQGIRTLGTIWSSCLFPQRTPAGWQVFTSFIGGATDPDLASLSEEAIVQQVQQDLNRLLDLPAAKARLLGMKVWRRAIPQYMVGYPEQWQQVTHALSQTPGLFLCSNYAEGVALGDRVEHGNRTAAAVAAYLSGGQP
Nature of the assay: PPO enzyme inhibition assay (IC50 for herbicides), CyPPO19 wild type fused to MBP. Type of assay: biochemical.

In assay [7] the target is Thermosynechococcus vulcanus NIES-2134 protoporphyrinogen IX oxidase CyPPO18 (SEQ ID NO: 3) variant V165C (MBP fusion) (Thermosynechococcus vestitus, UniProt Q8DLV2, V165C). Type of assay: biochemical. Particulars: 50 μM protoporphyrinogen IX, pH 7.5, room temperature, 30 min.
Assay [8] concerns PPO-deficient BT3 E. coli (ΔPPO) transformed with CyPPO18 variant R89A+V165C+F360I (Thermosynechococcus vulcanus NIES-2134, SEQ ID NO: 3). The assay can be described thus: Herbicide tolerance test in E. coli, CyPPO18 R89A+V165C+F360I. Type of assay: cell-based. On the set-up: key to the marks not given beside the values. The conditions noted are these: LB agar, 0 to 2,000 μM herbicide, 37° C., 16-20 hours.
Description: as §1, §2, §3, §4, §5

Assay [9] has as its target Thermosynechococcus vulcanus NIES-2134 protoporphyrinogen IX oxidase CyPPO18 (SEQ ID NO: 3) variant A167C (MBP fusion) (Thermosynechococcus vestitus, UniProt Q8DLV2, A167C). The assay can be described thus: PPO enzyme inhibition assay (IC50 for herbicides), CyPPO18 A167C fused to MBP. Type of assay: biochemical. The conditions noted are these: 50 μM protoporphyrinogen IX, pH 7.5, room temperature, 30 min.

Assay [10] deals with Thermosynechococcus elongatus PKUAC-SCTE542 protoporphyrinogen IX oxidase CyPPO19 (SEQ ID NO: 1) variant V165C (MBP fusion) (Thermosynechococcus sichuanensis, UniProt A0A7D6JSC1, V165C). The assay can be described thus: PPO enzyme inhibition assay (IC50 for herbicides), CyPPO19 V165C fused to MBP. It counts as biochemical.
Assay [11] deals with Thermosynechococcus elongatus PKUAC-SCTE542 protoporphyrinogen IX oxidase CyPPO19 (SEQ ID NO: 1) variant A167L (MBP fusion) (Thermosynechococcus sichuanensis, UniProt A0A7D6JSC1, A167L). The assay can be described thus: biochemical. The conditions noted are these: 50 μM protoporphyrinogen IX, pH 7.5, room temperature, 30 min, 10,000 means equivalent to or higher.
In assay [12] the target is Thermosynechococcus vulcanus NIES-2134 protoporphyrinogen IX oxidase CyPPO18, wild type, SEQ ID NO: 3 (MBP fusion) (Thermosynechococcus vestitus, UniProt Q8DLV2). It counts as biochemical. Particulars: CyPPO18 WT; 50 μM protoporphyrinogen IX, pH 7.5, room temperature, 30 min.

Read-outs that look alike come from different tables or passages of the source.

Chain of Thermosynechococcus vulcanus NIES-2134 protoporphyrinogen IX oxidase CyPPO18 (SEQ ID NO: 3) variant V165C (MBP fusion) (Q8DLV2 entry or part of it V165C): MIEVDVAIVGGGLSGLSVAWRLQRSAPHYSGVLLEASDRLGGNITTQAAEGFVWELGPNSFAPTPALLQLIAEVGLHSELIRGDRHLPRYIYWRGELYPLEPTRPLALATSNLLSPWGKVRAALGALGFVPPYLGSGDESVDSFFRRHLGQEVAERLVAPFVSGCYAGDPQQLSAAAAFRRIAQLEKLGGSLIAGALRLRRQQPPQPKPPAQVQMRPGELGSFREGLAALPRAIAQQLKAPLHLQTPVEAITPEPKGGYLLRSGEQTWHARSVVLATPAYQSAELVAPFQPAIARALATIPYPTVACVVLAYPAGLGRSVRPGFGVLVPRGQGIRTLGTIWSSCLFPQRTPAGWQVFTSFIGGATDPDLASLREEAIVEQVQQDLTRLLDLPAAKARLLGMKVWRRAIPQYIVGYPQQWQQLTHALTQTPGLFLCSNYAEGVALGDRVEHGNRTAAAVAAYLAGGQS
Chain of Thermosynechococcus vulcanus NIES-2134 protoporphyrinogen IX oxidase CyPPO18, wild type, SEQ ID NO: 3 (MBP fusion) (Q8DLV2 entry or part of it): as the sequence (Q8DLV2 entry or part of it V165C) above, with C165V counted along it
Chain of Thermosynechococcus vulcanus NIES-2134 protoporphyrinogen IX oxidase CyPPO18 (SEQ ID NO: 3) variant A167C (MBP fusion) (Q8DLV2 entry or part of it A167C): as the sequence (Q8DLV2 entry or part of it V165C) above, with C165V, A167C counted along it
Chain of Thermosynechococcus vulcanus NIES-2134 protoporphyrinogen IX oxidase CyPPO18 (SEQ ID NO: 3) variant A167L (MBP fusion) (Q8DLV2 entry or part of it A167L): as the sequence (Q8DLV2 entry or part of it V165C) above, with C165V, A167L counted along it
Chain of Thermosynechococcus elongatus PKUAC-SCTE542 protoporphyrinogen IX oxidase CyPPO19 (SEQ ID NO: 1) variant V165C (MBP fusion) (A0A7D6JSC1 entry or part of it V165C): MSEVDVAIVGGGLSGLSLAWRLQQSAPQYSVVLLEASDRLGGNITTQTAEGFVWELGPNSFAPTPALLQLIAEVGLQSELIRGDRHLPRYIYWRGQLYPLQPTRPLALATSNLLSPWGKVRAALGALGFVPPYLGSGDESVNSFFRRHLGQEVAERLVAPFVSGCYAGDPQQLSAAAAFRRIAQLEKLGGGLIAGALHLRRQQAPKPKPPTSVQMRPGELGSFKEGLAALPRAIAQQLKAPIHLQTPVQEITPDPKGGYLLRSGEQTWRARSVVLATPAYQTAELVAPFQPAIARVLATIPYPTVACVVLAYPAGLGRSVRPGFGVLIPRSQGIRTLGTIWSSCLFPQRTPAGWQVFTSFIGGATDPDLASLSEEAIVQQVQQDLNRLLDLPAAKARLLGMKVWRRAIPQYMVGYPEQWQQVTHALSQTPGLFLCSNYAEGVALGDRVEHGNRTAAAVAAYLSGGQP
Chain of Thermosynechococcus elongatus PKUAC-SCTE542 protoporphyrinogen IX oxidase CyPPO19 (SEQ ID NO: 1) variant A167L (MBP fusion) (A0A7D6JSC1 entry or part of it A167L): as the sequence (A0A7D6JSC1 entry or part of it V165C) above, with C165V, A167L counted along it

Take `Cc1nn(-c2cc(CC(Cl)C(=O)O)c(Cl)cc2F)c(=O)n1C(F)F` (stereo not drawn) [Carfentrazone]: the “tolerance level (relative growth of variant to wild type)” value in assay [1] is “+”; in assay [2] it was “++”; in assay [3], “++”; in assay [5] it was “++”; in assay [8], “++”. For the same molecule, the concentration for half-maximal inhibition (IC50) in [4] was 4010 nM; in [6] (CyPPO19 WT, 50 μM protoporphyrinogen IX, pH 7.5, room temperature, 30 min), 763 nM; in [7] it was 1220 nM; in [9] it was 1880 nM; in assay [10] (CyPPO19 V165C, 50 μM protoporphyrinogen IX, pH 7.5, room temperature, 30 min) it was 3090 nM; in [11], not below 10000 nM. In assay [12], this molecule yielded an IC50 of 566 nM.

Regarding `CCOc1cc(Oc2ccc(C(F)(F)F)cc2Cl)ccc1[N+](=O)[O-]` [Oxyfluorfen], the “tolerance level (relative growth of variant to wild type)” value in [1] is given as “+”; in assay [2], “+”; in assay [3], “++”; in assay [5], “++”; in [8], “++”. For the same molecule, the half-inhibitory concentration (IC50) in assay [4] turned out to be 2810 nM; in [6], 570 nM; in assay [7], 502 nM; in assay [9], 570 nM; in [10] it was 3210 nM; in assay [11] (read-out: IC50), 5260 nM. This molecule also displayed an IC50 in [12] of 103 nM.

The values above are taken from patent publication US12698507B2, “Methods and compositions for conferring and/or enhancing herbicide tolerance using protoporphyrinogen IX oxidase of various cyanobacteria or variant thereof” (FarmHannong Co., Ltd., priority 2019, dated 2026).
